These results are taken from DBAASP.

Holding throughout (test): ≥ marks a high value that may be exact or a test limit, other limits are often not marked, values filed in µg/mL are converted to µM
For assay [1], the system named is Escherichia coli.
In assay [2] the test system is Micrococcus luteus A270.
The subject of assay [3] is Listeria innocua.
Assay [4] deals with Klebsiella pneumoniae.
Assay [5] has as its system Enterococcus faecium.
For assay [6], the system named is Acinetobacter baumannii.
Assay [7] has as its system Escherichia coli ATCC 25922.
The subject of assay [8] is Staphylococcus aureus ATCC 43300.
Assay [9] deals with Pseudomonas aeruginosa.
Assay [10] deals with Streptococcus pneumoniae.
Assay [11] has as its system Klebsiella pneumoniae ATCC 13883.
The test system of assay [12] is Cryptococcus neoformans ATCC 208821.
Assay [13] has as its system Acinetobacter baumannii ATCC 19606.
For assay [14], the system named is Klebsiella pneumoniae ATCC BAA-2146.
Assay [15] relates to Bacillus subtilis ATCC 6051.
Assay [16] relates to Candida albicans ATCC 90028.
In assay [17] the test system is Klebsiella pneumoniae ATCC 700603.
Assay [18] has as its system Pseudomonas aeruginosa ATCC 27853.
Assay [19] deals with Staphylococcus xylosus.
Assay [20] deals with Escherichia coli DH5alpha.

≈ marks a conversion by molar mass, not a printed value.

Consider `CC(C)[C@H](NC(=O)[C@@H]1CCCN1C(=O)[C@@H](NC(=O)[C@H](Cc1ccccc1)NC(=O)[C@H](CCC(=O)O)NC(=O)[C@H](CCCCN)NC(=O)CNC(=O)[C@H](Cc1ccccc1)NC(=O)[C@H](CC(N)=O)NC(=O)[C@H](CCCN=C(N)N)NC(=O)[C@H](C)N)[C@@H](C)O)C(=O)O` [ARNFGKEFTPV], for which the MIC (in general, the lowest concentration that inhibits growth of the organism) in assay [1] came out at 12 µM (≈ 15.2 µg/mL); in assay [2], 6 µM (≈ 7.59 µg/mL); in [3], 6 µM (≈ 7.59 µg/mL).

Consider `CC[C@H](C)[C@H](NC(=O)[C@H](Cc1cnc[nH]1)NC(=O)CNC(=O)CN)C(=O)N[C@@H](CCCN=C(N)N)C(=O)N[C@@H](CCCN=C(N)N)C(=O)N[C@H](C(=O)N[C@H](C(=O)N[C@@H](CCCN=C(N)N)C(=O)N[C@@H](CCCCN)C(=O)N[C@H](C(=O)N[C@H](C(=O)N[C@@H](Cc1cnc[nH]1)C(=O)N[C@H](C(=O)N[C@H](C(=O)N[C@@H](CCCCN)C(=O)N[C@@H](CCCCN)C(=O)NCC(=O)NCC(=O)N[C@@H](CS)C(N)=O)[C@@H](C)CC)[C@@H](C)CC)[C@@H](C)CC)[C@@H](C)CC)[C@@H](C)CC)[C@@H](C)CC` [GGHIRRIIRKIIHIIKKGGC], for which the MIC in [4] came to 8 µM (≈ 18.1 µg/mL); in [5], 3.3 µM (≈ 7.48 µg/mL); in [6], 10.7 µM (≈ 24.3 µg/mL); in assay [7], 1.3 µM (≈ 2.95 µg/mL); in assay [8] it was 1.5 µM (≈ 3.4 µg/mL); in assay [9], 4 µM (≈ 9.07 µg/mL). Besides, the MIC in assay [10] was found to be 4 µM (≈ 9.07 µg/mL).

With `CC[C@H](C)[C@@H]1NC(=O)CNC(=O)[C@H](CCCN=C(N)N)NC(=O)[C@H](Cc2ccc(O)cc2)NC(=O)[C@@H]2CSSC[C@H](NC1=O)C(=O)N[C@@H](Cc1ccc(O)cc1)C(=O)N[C@@H](CCCN=C(N)N)C(=O)N[C@@H](CCCN=C(N)N)C(=O)N[C@H](C(=O)N[C@@H](CCCN=C(N)N)C(=O)O)CSSC[C@H](NC(=O)[C@H](C)NC(=O)[C@@H](N)CCCCN)C(=O)N[C@@H](Cc1ccccc1)C(=O)N[C@@H](CCCN=C(N)N)C(=O)N[C@@H](C(C)C)C(=O)N2` [KACFRVCYRGICYRRCR], the MIC was over 7.43 µM in [4]; 0.232 µM (≈ 0.499 µg/mL) in assay [11]; 0.232 µM (≈ 0.499 µg/mL) in assay [6]; 0.232 µM (≈ 0.499 µg/mL) in assay [12]; 0.116 µM (≈ 0.25 µg/mL) in assay [7]; 0.232 µM (≈ 0.499 µg/mL) in assay [13]. Also, the MIC came to 0.464 µM (≈ 0.998 µg/mL) in assay [14]; 0.232 µM (≈ 0.499 µg/mL) in [15]; 3.71 µM (≈ 7.99 µg/mL) in assay [16]; 3.71 µM (≈ 7.99 µg/mL) in assay [8]; 0.464 µM (≈ 0.998 µg/mL) in assay [17]; 1.86 µM (≈ 3.99 µg/mL) in assay [9]. Besides, the MIC in assay [18] turned out to be 0.232 µM (≈ 0.499 µg/mL).

For the molecule `NCCCC[C@H](NC(=O)[C@H](CCCN=C(N)N)NC(=O)[C@H](CCCCN)NC(=O)CNC(=O)[C@H](CO)NC(=O)CNC(=O)[C@H](CCCCN)NC(=O)[C@H](CCCN=C(N)N)NC(=O)[C@@H](N)CCCCN)C(=O)O` [KRKGSGKRK], the MIC in assay [19] and in assay [20] was at least 64 µM in each case.

Consider `CC[C@H](C)[C@H](NC(=O)[C@H](CC(C)C)NC(=O)[C@H](CCCCN)NC(=O)[C@H](CCCN=C(N)N)NC(=O)[C@@H](N)CCCCN)C(=O)N[C@@H](CCCCN)C(=O)N[C@@H](CCCN=C(N)N)C(=O)N[C@@H](CCCCN)C(=O)O` [KRKLIKRK], for which the MIC in assay [19] and in assay [20] was at least 64 µM each time.

In the case of `CC[C@H](C)[C@H](NC(=O)[C@H](CC(C)C)NC(=O)[C@@H](NC(=O)[C@H](CC(C)C)NC(=O)[C@@H](NC(=O)[C@H](CCCCN)NC(=O)[C@H](CCCN=C(N)N)NC(=O)[C@H](CCCCN)NC(=O)[C@H](CCCN=C(N)N)NC(=O)[C@@H](N)CCCCN)[C@@H](C)CC)[C@@H](C)CC)C(=O)N[C@@H](CCCCN)C(=O)N[C@@H](CCCN=C(N)N)C(=O)N[C@@H](CCCCN)C(=O)O` [KRKRKILILIKRK], the values for the MIC in assay [19] and in assay [20] were 0.5 µM (≈ 0.847 µg/mL) and 8 µM (≈ 13.5 µg/mL), respectively.

In the case of `CC(C)[C@@H]1NC(=O)[C@H](CCCN=C(N)N)NC(=O)[C@H](C)NC(=O)[C@@H](NC(=O)[C@H](Cc2c[nH]c3ccccc23)NC(=O)[C@@H](N)CCCCN)CSSC[C@@H](C(=O)N[C@@H](CCCN=C(N)N)C(=O)O)NC(=O)[C@H](CCCN=C(N)N)NC(=O)[C@H](CCCN=C(N)N)NC(=O)[C@H](Cc2ccc(O)cc2)NC(=O)[C@@H]2CSSC[C@H](NC1=O)C(=O)N[C@@H](C)C(=O)N[C@@H](CCCN=C(N)N)C(=O)NCC(=O)N[C@@H](C)C(=O)N2` [KWCARVCARGACYRRCR], the MIC is over 7.77 µM in assay [4]; 7.77 µM (≈ 16 µg/mL) in assay [11]; 7.77 µM (≈ 16 µg/mL) in [6]; 7.77 µM (≈ 16 µg/mL) in assay [12]; 3.89 µM (≈ 7.98 µg/mL) in [7]; over 7.77 µM in assay [13]. For the same molecule, the MIC is 7.77 µM (≈ 16 µg/mL) in [14]; 7.77 µM (≈ 16 µg/mL) in assay [15]; 7.77 µM (≈ 16 µg/mL) in assay [16]; over 7.77 µM in [8]; over 7.77 µM in assay [17]; over 7.77 µM in assay [9]. The MIC in assay [18] was over 7.77 µM.

Consider `CC[C@H](C)[C@@H]1NC(=O)CNC(=O)[C@H](CCCN=C(N)N)NC(=O)[C@H](Cc2ccc(O)cc2)NC(=O)[C@@H]2CSSC[C@H](NC1=O)C(=O)N[C@@H](Cc1ccc(O)cc1)C(=O)N[C@@H](CCCN=C(N)N)C(=O)N[C@@H](CCCN=C(N)N)C(=O)N[C@H](C(=O)N[C@@H](CCCN=C(N)N)C(=O)O)CSSC[C@H](NC(=O)[C@H](Cc1c[nH]c3ccccc13)NC(=O)[C@@H](N)CCCCN)C(=O)N[C@@H](C)C(=O)N[C@@H](CCCN=C(N)N)C(=O)N[C@@H](C(C)C)C(=O)N2` [KWCARVCYRGICYRRCR], for which the MIC in [4] worked out at 7.3 µM (≈ 16 µg/mL); in assay [11], 0.228 µM (≈ 0.499 µg/mL); in [6], 0.228 µM (≈ 0.499 µg/mL); in assay [12] it was 0.228 µM (≈ 0.499 µg/mL); in [7] it was 0.057 µM (≈ 0.125 µg/mL); in [13], 0.228 µM (≈ 0.499 µg/mL). For the same molecule, the MIC was 0.228 µM (≈ 0.499 µg/mL) in [14]; 0.114 µM (≈ 0.25 µg/mL) in assay [15]; 3.65 µM (≈ 7.99 µg/mL) in assay [16]; 1.82 µM (≈ 3.99 µg/mL) in [8]; 0.228 µM (≈ 0.499 µg/mL) in assay [17]; 0.912 µM (≈ 2 µg/mL) in assay [9]. This molecule also returned an MIC in [18] of 0.228 µM (≈ 0.499 µg/mL).

For `CC[C@H](C)[C@@H]1NC(=O)CNC(=O)[C@H](CCCN=C(N)N)NC(=O)[C@H](Cc2ccc(O)cc2)NC(=O)[C@@H]2CSSC[C@H](NC1=O)C(=O)N[C@@H](Cc1ccc(O)cc1)C(=O)N[C@@H](CCCN=C(N)N)C(=O)N[C@@H](CCCN=C(N)N)C(=O)N[C@H](C(=O)N[C@@H](CCCN=C(N)N)C(=O)O)CSSC[C@H](NC(=O)[C@H](Cc1c[nH]c3ccccc13)NC(=O)[C@@H](N)CCCCN)C(=O)NCC(=O)N[C@@H](CCCN=C(N)N)C(=O)N[C@@H](C(C)C)C(=O)N2` [KWCGRVCYRGICYRRCR], the MIC was over 7.34 µM in assay [4]; 0.918 µM (≈ 2 µg/mL) in assay [11]; 0.918 µM (≈ 2 µg/mL) in [6]; 0.918 µM (≈ 2 µg/mL) in [12]; 0.115 µM (≈ 0.25 µg/mL) in assay [7]; 0.23 µM (≈ 0.499 µg/mL) in [13]. Moreover, the MIC in assay [14] stood at 0.918 µM (≈ 2 µg/mL); in assay [15] it was 0.23 µM (≈ 0.499 µg/mL); in assay [16] it was 3.67 µM (≈ 7.99 µg/mL); in assay [8], 7.34 µM (≈ 16 µg/mL); in assay [17] it was 0.459 µM (≈ 0.998 µg/mL); in [9], 7.34 µM (≈ 16 µg/mL). The molecule also showed an MIC in assay [18] of 0.459 µM (≈ 0.998 µg/mL).

`CC[C@H](C)[C@H](NC(=O)[C@H](CC(C)C)NC(=O)[C@@H](NC(=O)[C@@H](N)CC(C)C)[C@@H](C)CC)C(=O)N[C@@H](CCCCN)C(=O)N[C@@H](CCCN=C(N)N)C(=O)N[C@@H](CCCCN)C(=O)O` [LILIKRK]: the MIC in [19] and in [20] was at least 64 µM in each case.
